Reference: patent publication US20230165817A1, “DOPAMINERGIC MIMETICS” (TDELTAS LIMITED, priority 2004, published 2023)

Legend:
[1] = system: electrical power of four rat brain areas (frontal cortex, hippocampus, striatum, reticular formation); experiment: EEG measurements (Tele-Stereo-EEG) in freely-moving rats after single intraperitoneal injection; type: in vivo, Fisher rats
Source text: Analysis of brain field potentials (“Tele-Stereo-EEG”) has been proven to be a very sensitive tool for the characterization of drug effects on the central nervous system (Dimpfel et al., 1986). After administration of a centrally active drug, quantitative changes in the brain field potentials can be considered as a characteristic fingerprint of that particular drug. “Fingerprints” of more than 100 compounds have been obtained including 8 established drug categories, e.g. stimulants, sedatives, hallucinogenics, tranquilizers, analgesics, antidepressants, neuroleptics, and narcotics. Different dosages of the same drug cause quantitative changes in electrical power. […] Direct comparison with specific reference drugs, or by discriminant analysis with reference to an extensive fingerprint database, permits the detection of any possible similarities with established drugs. In general, “fingerprints” show prominent differences for drugs prescribed for different indications and are similar for drugs with similar indication (Dimpfel, 2003). Furthermore, the pattern of EEG changes in the rat is a useful tool in predicting possible changes in the EEG power spectrum in humans.
Adult Fisher rats (4-6 month of age and day-night converted, bodyweight approximately 400 g) were implanted with 4 bipolar concentric steel electrodes using a stereotaxic surgical procedure. According to the coordinates of Paxinos and Watson (1982), all four electrodes were placed 3 mm lateral within the left hemisphere. Anterior coordinates were 12.2, 5.7, 9.7 and 3.7 mm for frontal cortex, hippocampus, striatum and reticular formation, respectively. A baseplate carrying the electrodes and a 5-pin-plug was fixed to the skull by dental cement attached to 3 steel screws fixed into the skull. Animals were given two weeks for recovery from the surgical procedure.
EEG signals were recorded from frontal cortex, hippocampus, striatum and reticular formation and were amplified and processed as described by Dimpfel et al. (1986). After automatic artefact rejection, signals were collected in sweeps of 4 s duration and submitted to Fast Fourier transformation. The resulting electrical power spectra were divided into 6 frequency ranges: delta (0.8-4.5 Hz); theta (4.75-6.75 Hz); alpha1 (7.00-9.50 Hz); alpha2 (9.75-12.50 Hz); beta (12.75-18.50 Hz); beta2 (18.75-35.00 Hz). […] In an off-line procedure spectra were averaged to give 15 minute or longer periods for further statistical analysis.
Four doses of KTX 0101 (sodium (R)-3-hydroxybuytrate: 100, 300, 600 and 1000 mg/kg body weight) (supplied by Solvias AG, CH 4002 Basel, Switzerland, batch No: SO-1058.047.1.120) and a vehicle control (0.9% w/v saline) were administered intraperitoneally to a group of 12 animals using a crossover design with at least 3 drug holidays in between the applications. After a pre-drug period of 45 minutes for baseline recording, drug effects were observed continuously for 300 minutes. Changes of electrical power (μV2/W) are expressed as percentage of the 45 minute pre-drug values. Multivariate statistics were calculated according to Ahrens and Läuter (1974).

[2] = Plasma determination of acetoacetate after intraperitoneal injection; type: in vivo, Sprague-Dawley rats; conditions: 30 min after dosing, rat
Protocol: (§1) One hundred and seventy-one male Sprague-Dawley rats (weight range 200-250 g) housed on a standard […] were used. Animals had free access to a standard pelleted rat diet and tap water at all times. KTX 0101 (sodium (R)-3-hydroxybuytrate; 100, 300, 600 and 1000 mg/kg body weight) supplied by Sigma (H6501, Lot 111K2618) was administered by intraperitoneal injection. Control animals received the appropriate 0.9% saline vehicle via the same route. Animals were killed by CO2 asphyxiation 0 h, 0.5 h, 1.0 h or 2.0 h after dosing and a terminal blood sample was collected by cardiac puncture. Blood was taken in lithium heparinised tubes and kept on ice prior to centrifugation to yield the plasma samples for analysis.
The assay developed for the determination of acetoacetate was based on previously published clinical assays (Li et al, 1980; McMurray et al, 1984). A different assay buffer was prepared (0.1M Na2PO4 adjusted to pH 7.0 with HCl) in order to shift the equilibrium of the reaction to production of β hydroxybutyrate and NAD+. Other modifications included the additional use of sodium oxalate at a final assay concentration of 20 mM to inhibit lactate dehydrogenase (LDH) present in the plasma samples. […]
Acetoacetate was measured via the reduction in OD340 nm over a 1 minute period after allowing for the reaction rate to settle.

[3] = Plasma determination of (R)-3-hydroxybutyrate after intraperitoneal injection; type: in vivo, Sprague-Dawley rats; conditions: rat
Protocol: as §1
Commercial clinical assay kits for the determination of D-β-hydroxybutyrate were obtained from Randox Laboratories (Antrim, UK). The kit quantified NADH via the activity of β-hydroxybutyrate dehydrogenase measured as an increase in OD340 nm. An alkaline pH is necessary to drive the reaction equilibrium towards the production of NADH and acetoacetate.
This spectrophotometric assay was modified for application to a 96 well microplate format. The reaction rate was then determined from the increase in OD340 nm over a 1 minute time course, after allowing a necessary period for the reaction rate to settle.

[4] = system: electrical power of four rat brain areas (frontal cortex, hippocampus, striatum, reticular formation); conditions: literature (Dimpfel et al., 1987; Dimpfel, 2003); cited from earlier work

SMILES: C[C@@H](O)CC(=O)[O-].[Na+] [KTX 0101, sodium (R)-3-hydroxybuytrate]
- Duration of EEG effects ([1]; 100 mg/kg body weight ip, rat): 1 to 2 h
- Statistical significance of EEG changes ([1]; 100 mg/kg body weight ip, rat): not statistically significant
- Changes in EEG power spectrum (frequency changes) ([1]; 100 mg/kg body weight ip, rat, vs pre-drug values): decrease of electrical power mainly with regard to alpha2
- Duration of EEG pattern of changes ([1]; 300 mg/kg ip, rat): 2 h
- Statistical significance of EEG changes ([1]; 300 mg/kg ip, rat): only statistically significant in the reticular formation
- Changes in EEG power spectrum (frequency changes) ([1]; 300 mg/kg ip, rat, vs pre-drug values): decreases in alpha2 power throughout all brain regions
- Duration of EEG effects ([1]; 600 mg/kg ip, rat, brain regions except reticular formation): ~2 h
- Statistical significance of EEG changes ([1]; 600 mg/kg ip, rat, including first hour within striatum and all 24 variables): statistically significant
- Duration of decreases in EEG power in the reticular formation ([1]; 600 mg/kg ip, rat, reticular formation): persisted throughout the third hour
- Changes in EEG power spectrum (frequency changes) ([1]; 1000 mg/kg ip, rat): identical pattern of change, but with more prominent decreases of power
- Duration of decreases of EEG power ([1]; 1000 mg/kg ip, rat): lasting into the third hour
- Statistical significance of EEG changes ([1]; 1000 mg/kg ip, rat, even for the 4th hour within the reticular formation): statistically significant
- Duration of decreases of EEG power in the reticular formation ([1]; 1000 mg/kg ip, rat, reticular formation, total experimental time): 5 h
- Similarity of qEEG fingerprint to drug classes by discriminant analysis ([1]; 24 variables, 20th to 50th min after single-dose application, rat): close proximity to the dopamine reuptake inhibitor, cocaine and the dopamine releasing agent, d-amphetamine
- Period of greatest changes in EEG patterns ([1]; after ip injection, rat): 5 to 65 min
- EEG changes, summary over dose range ([1]; dose range 300 to 1000 mg/kg ip, rat): clear, dose- and time-dependent statistically significant changes
- Specific EEG frequencies changed ([1]; rat, ip): decrease the delta, theta and alpha2 EEG frequencies
- EEG power spectrum changes, dose dependence ([1]; single ip injection, range 100 to 1000 mg/kg, freely-moving rats): clear, dose-dependent changes in the EEG power spectrum
- Plasma concentration of acetoacetate ([2]; 600 mg/kg ip): significantly increased
- Plasma concentration of acetoacetate ([2]; 1000 mg/kg ip): significantly increased
- Plasma concentration of (R)-3-hydroxybutyrate ([3]; 100, 300, 600 and 1000 mg/kg ip): clear dose-dependent increases
- Time at which plasma (R)-3-hydroxybutyrate had returned to control values ([3]; 100-1000 mg/kg ip, after injection): ≤ 1 h
- Time of highest elevations in plasma (R)-3-hydroxybutyrate ([3]; 100-1000 mg/kg ip, first sample): 30 min

SMILES: N[C@@H](Cc1ccc(O)c(O)c1)C(=O)O [L-DOPA]
- EEG frequency changes of drugs enhancing dopaminergic function [4]: decrease delta, theta and alpha2 frequencies

SMILES: Oc1cc2c(cc1O)C(c1ccccc1)CNCC2 (stereo not shown) [SKF 38393]
- EEG frequency changes of drugs enhancing dopaminergic function [4]: decrease delta, theta and alpha2 frequencies
